According to ChEMBL document CHEMBL1275492, “In vitro activity of ceftobiprole against pathogens from two phase 3 clinical trials of complicated skin and skin structure infections” (2008):
Values after ≈ are worked out from the molar mass of the structure shown.

Experiments:
Format in all cases: functional
Providencia stuartii = assay: Antibacterial activity against Providencia stuartii obtained from complicated skin and skin structure infections by agar dilution method
Serratia marcescens = assay: Antibacterial activity against Serratia marcescens obtained from complicated skin and skin structure infections by agar dilution method
Klebsiella pneumoniae = assay: Antibacterial activity against Klebsiella pneumoniae obtained from complicated skin and skin structure infections by agar dilution method
Pseudomonas aeruginosa = assay: Antibacterial activity against Pseudomonas aeruginosa obtained from complicated skin and skin structure infections by agar dilution method
Salmonella = assay: Antibacterial activity against Salmonella spp. obtained from complicated skin and skin structure infections by agar dilution method
Klebsiella oxytoca = assay: Antibacterial activity against Klebsiella oxytoca obtained from complicated skin and skin structure infections by agar dilution method
Morganella morganii = assay: Antibacterial activity against Morganella morganii obtained from complicated skin and skin structure infections by agar dilution method
Pseudomonas fluorescens = assay: Antibacterial activity against Pseudomonas fluorescens obtained from complicated skin and skin structure infections by agar dilution method
Enterobacter cloacae = assay: Antibacterial activity against Enterobacter cloacae obtained from complicated skin and skin structure infections by agar dilution method
Acinetobacter baumannii = assay: Antibacterial activity against Acinetobacter baumannii obtained from complicated skin and skin structure infections by agar dilution method
Citrobacter freundii = assay: Antibacterial activity against Citrobacter freundii obtained from complicated skin and skin structure infections by agar dilution method
Citrobacter braakii = assay: Antibacterial activity against Citrobacter braakii obtained from complicated skin and skin structure infections by agar dilution method
Proteus vulgaris = assay: Antibacterial activity against Proteus vulgaris obtained from complicated skin and skin structure infections by agar dilution method
Klebsiella aerogenes = assay: Antibacterial activity against Enterobacter aerogenes obtained from complicated skin and skin structure infections by agar dilution method
Proteus penneri = assay: Antibacterial activity against Proteus penneri obtained from complicated skin and skin structure infections by agar dilution method
Escherichia coli = assay: Antibacterial activity against Escherichia coli obtained from complicated skin and skin structure infections by agar dilution method
Proteus mirabilis = assay: Antibacterial activity against Proteus mirabilis obtained from complicated skin and skin structure infections by agar dilution method
[1] = system: Stenotrophomonas maltophilia; assay: Antibacterial activity against Stenotrophomonas maltophilia obtained from complicated skin and skin structure infections by agar dilution method
Enterobacter amnigenus = assay: Antibacterial activity against Enterobacter amnigenus obtained from complicated skin and skin structure infections by agar dilution method; settings: Lelliottia amnigena
Staphylococcus warneri = assay: Antibacterial activity against coagulase-negative Staphylococcus warneri obtained from complicated skin and skin structure infections by agar dilution method
[2] = system: Staphylococcus lugdunensis; assay: Antibacterial activity against methicillin-resistant, oxacillin-susceptible, coagulase-negative, mecA-positive Staphylococcus lugdunensis obtained from complicated skin and skin structure infections by agar dilution method
[3] = system: Streptococcus constellatus; assay: Antibacterial activity against Streptococcus constellatus obtained from complicated skin and skin structure infections by agar dilution method
[4] = system: Staphylococcus epidermidis; assay: Antibacterial activity against coagulase-negative Staphylococcus epidermidis obtained from complicated skin and skin structure infections by agar dilution method
Staphylococcus aureus [5] = assay: Antibacterial activity against methicillin susceptible Staphylococcus aureus obtained from complicated skin and skin structure infections by agar dilution method
[6] = system: Staphylococcus haemolyticus; assay: Antibacterial activity against coagulase-negative Staphylococcus haemolyticus obtained from complicated skin and skin structure infections by agar dilution method
Streptococcus mitis = assay: Antibacterial activity against Streptococcus mitis obtained from complicated skin and skin structure infections by agar dilution method
[7] = system: Staphylococcus intermedius; assay: Antibacterial activity against Staphylococcus intermedius obtained from complicated skin and skin structure infections by agar dilution method
Staphylococcus capitis = assay: Antibacterial activity against coagulase-negative Staphylococcus capitis obtained from complicated skin and skin structure infections by agar dilution method
Micrococcus = assay: Antibacterial activity against Micrococcus spp. obtained from complicated skin and skin structure infections by agar dilution method
Staphylococcus hominis = assay: Antibacterial activity against coagulase-negative Staphylococcus hominis obtained from complicated skin and skin structure infections by agar dilution method
[8] = system: Staphylococcus saprophyticus; assay: Antibacterial activity against coagulase-negative Staphylococcus saprophyticus obtained from complicated skin and skin structure infections by agar dilution method
Staphylococcus aureus [9] = assay: Antibacterial activity against methicillin resistant Staphylococcus aureus obtained from complicated skin and skin structure infections by agar dilution method
Staphylococcus = assay: Antibacterial activity against methicillin-susceptible, coagulase-negative Staphylococcus obtained from complicated skin and skin structure infections by agar dilution method
Lactococcus lactis = assay: Antibacterial activity against Lactococcus lactis obtained from complicated skin and skin structure infections by agar dilution method
Staphylococcus aureus [10] = assay: Antibacterial activity against Staphylococcus aureus obtained from complicated skin and skin structure infections by agar dilution method
Gemella morbillorum = assay: Antibacterial activity against Gemella morbillorum obtained from complicated skin and skin structure infections […]
Staphylococcus cohnii = assay: Antibacterial activity against coagulase-negative Staphylococcus cohnii obtained from complicated skin and skin structure infections by agar dilution method
Mammaliicoccus sciuri = assay: Antibacterial activity against coagulase-negative Staphylococcus sciuri obtained from complicated skin and skin structure infections by agar dilution method
Aerococcus viridans = assay: Antibacterial activity against Aerococcus viridans obtained from complicated skin and skin structure infections by agar dilution method
[11] = system: Staphylococcus lugdunensis; assay: Antibacterial activity against coagulase-negative Staphylococcus lugdunensis obtained from complicated skin and skin structure infections by agar dilution method
Gemella = assay: Antibacterial activity against Gemella spp. obtained from complicated skin and skin structure infections by agar dilution method
Bacillus = assay: Antibacterial activity against Bacillus spp. obtained from complicated skin and skin structure infections by agar dilution method

Work on `CO/N=C(\C(=O)N[C@@H]1C(=O)N2C(C(=O)O)=C(CSc3nc(=O)c(O)nn3C)CS[C@H]12)c1csc(N)n1` [CEFTRIAXONE] yielded an MIC50 (Providencia stuartii) of 0.06 mg/L (≈ 0.108 µM), an MIC90 (Providencia stuartii) of 64 mg/L (≈ 115 µM) and an MIC50 (Serratia marcescens) of 0.06 mg/L (≈ 0.108 µM). The MIC90 (Serratia marcescens) was 64 mg/L (≈ 115 µM), the MIC50 (Klebsiella pneumoniae) was 0.12 mg/L (≈ 0.216 µM) and the MIC90 (Klebsiella pneumoniae) was 64 mg/L (≈ 115 µM). The MIC50 (Pseudomonas aeruginosa) was 64 mg/L (≈ 115 µM), the MIC90 (Pseudomonas aeruginosa) was > 128 mg/L and the MIC50 (Salmonella) was 0.06 mg/L (≈ 0.108 µM). The MIC90 (Salmonella) was 64 mg/L (≈ 115 µM), the MIC50 (Klebsiella oxytoca) was 0.06 mg/L (≈ 0.108 µM) and the MIC90 (Klebsiella oxytoca) was 64 mg/L (≈ 115 µM). For the same molecule, the MIC50 (Morganella morganii) was 0.03 mg/L (≈ 0.0541 µM), the MIC90 (Morganella morganii) was > 128 mg/L and the MIC50 (Pseudomonas fluorescens) was > 32 mg/L. For the same molecule, the MIC90 (Pseudomonas fluorescens) was > 128 mg/L, the MIC50 (Enterobacter cloacae) was ≤ 0.25 mg/L and the MIC90 (Enterobacter cloacae) was 64 mg/L (≈ 115 µM). For the same molecule, the MIC50 (Acinetobacter baumannii) was > 32 mg/L, the MIC90 (Acinetobacter baumannii) was > 128 mg/L and the MIC50 (Citrobacter freundii) was 0.06 mg/L (≈ 0.108 µM). It also gave an MIC90 (Citrobacter freundii) of 64 mg/L (≈ 115 µM), an MIC50 (Citrobacter braakii) of 0.06 mg/L (≈ 0.108 µM) and an MIC90 (Citrobacter braakii) of 64 mg/L (≈ 115 µM). The MIC50 (Proteus vulgaris) was 0.06 mg/L (≈ 0.108 µM), the MIC90 (Proteus vulgaris) was 64 mg/L (≈ 115 µM) and the MIC50 (Klebsiella aerogenes) was 0.06 mg/L (≈ 0.108 µM). It also gave an MIC90 (Klebsiella aerogenes) of 64 mg/L (≈ 115 µM), an MIC50 (Proteus penneri) of 0.06 mg/L (≈ 0.108 µM) and an MIC90 (Proteus penneri) of 64 mg/L (≈ 115 µM). For the same molecule, the MIC50 (Escherichia coli) was 0.06 mg/L (≈ 0.108 µM), the MIC90 (Escherichia coli) was 0.25 mg/L (≈ 0.451 µM) and the MIC50 (Proteus mirabilis) was ≤ 0.015 mg/L. For the same molecule, the MIC90 (Proteus mirabilis) was 4 mg/L (≈ 7.21 µM), the MIC50 [1] was > 32 mg/L and the MIC90 [1] was > 128 mg/L. The MIC50 (Enterobacter amnigenus) was 0.06 mg/L (≈ 0.108 µM) and the MIC90 (Enterobacter amnigenus) was 64 mg/L (≈ 115 µM).

`Cc1onc(-c2ccccc2)c1C(=O)N[C@@H]1C(=O)N2[C@@H]1SC(C)(C)[C@@H]2C(=O)O` [OXACILLIN] was tested, and the MIC50 (Staphylococcus warneri) was 0.5 mg/L (≈ 1.25 µM), the MIC90 (Staphylococcus warneri) was > 8 mg/L and the MIC50 [2] was 4 mg/L (≈ 9.96 µM). The MIC90 [2] was 32 mg/L (≈ 79.7 µM), the MIC50 [3] was 0.12 mg/L (≈ 0.299 µM) and the MIC90 [3] was 0.25 mg/L (≈ 0.623 µM). For the same molecule, the MIC50 [4] was 0.5 mg/L (≈ 1.25 µM), the MIC90 [4] was > 8 mg/L and the MIC50 (Staphylococcus aureus [5]) was 0.25 mg/L (≈ 0.623 µM). For the same molecule, the MIC90 (Staphylococcus aureus [5]) was 0.5 mg/L (≈ 1.25 µM), the MIC50 [6] was 0.5 mg/L (≈ 1.25 µM) and the MIC90 [6] was > 8 mg/L. It also gave an MIC (Streptococcus mitis) of 0.25 mg/L (≈ 0.623 µM), an MIC50 (Streptococcus mitis) of 0.25 mg/L (≈ 0.623 µM) and an MIC90 (Streptococcus mitis) of 1 mg/L (≈ 2.49 µM). It also gave an MIC [7] of 0.25 mg/L (≈ 0.623 µM), an MIC50 [7] of 0.25 mg/L (≈ 0.623 µM) and an MIC90 [7] of 1 mg/L (≈ 2.49 µM). The MIC50 (Staphylococcus capitis) was 0.5 mg/L (≈ 1.25 µM), the MIC90 (Staphylococcus capitis) was > 8 mg/L and the MIC50 (Micrococcus) was 0.25 mg/L (≈ 0.623 µM). For the same molecule, the MIC90 (Micrococcus) was > 8 mg/L, the MIC50 (Staphylococcus hominis) was 0.5 mg/L (≈ 1.25 µM) and the MIC90 (Staphylococcus hominis) was > 8 mg/L. For the same molecule, the MIC50 [8] was 0.5 mg/L (≈ 1.25 µM), the MIC90 [8] was > 8 mg/L and the MIC50 (Staphylococcus aureus [9]) was 16 mg/L (≈ 39.9 µM). The MIC90 (Staphylococcus aureus [9]) was > 32 mg/L, the MIC50 (Staphylococcus) was 0.12 mg/L (≈ 0.299 µM) and the MIC90 (Staphylococcus) was 0.25 mg/L (≈ 0.623 µM). For the same molecule, the MIC50 (Lactococcus lactis) was 0.25 mg/L (≈ 0.623 µM), the MIC90 (Lactococcus lactis) was > 8 mg/L and the MIC50 (Staphylococcus aureus [10]) was 0.5 mg/L (≈ 1.25 µM). For the same molecule, the MIC90 (Staphylococcus aureus [10]) was 32 mg/L (≈ 79.7 µM), the MIC50 (Gemella morbillorum) was 0.25 mg/L (≈ 0.623 µM) and the MIC90 (Gemella morbillorum) was > 8 mg/L. For the same molecule, the MIC50 (Staphylococcus cohnii) was 0.5 mg/L (≈ 1.25 µM), the MIC90 (Staphylococcus cohnii) was > 8 mg/L and the MIC50 (Mammaliicoccus sciuri) was 0.5 mg/L (≈ 1.25 µM). The MIC90 (Mammaliicoccus sciuri) was > 8 mg/L, the MIC50 (Aerococcus viridans) was 0.25 mg/L (≈ 0.623 µM) and the MIC90 (Aerococcus viridans) was > 8 mg/L. For the same molecule, the MIC50 [11] was 0.5 mg/L (≈ 1.25 µM), the MIC90 [11] was > 8 mg/L and the MIC50 (Gemella) was 0.25 mg/L (≈ 0.623 µM). For the same molecule, the MIC90 (Gemella) was > 8 mg/L, the MIC50 (Bacillus) was 0.25 mg/L (≈ 0.623 µM) and the MIC90 (Bacillus) was > 8 mg/L.
